From patent US10093621B2, “4-oxo-N-(4-hydroxyphenyl)retinamide derivatives as therapeutic agents for the treatment of cancer” (FONDAZIONE IRCCS ISTITUTO NAZIONALE DEI TUMORI, priority 2014, dated 2018)
Each block holds one compound with its values, some of them ahead of it.

Experiments:
A2780 = assay: Antiproliferative activity, sulphorhodamine B assay, 72 hours of treatment; assay type: cell-based; conditions: A2780 (ovary)
Experimental: (§1) The antiproliferative activity of the various compounds 1a-c (in both monotherapy and combined treatment) on the different tumour cell lines was evaluated by sulphorhodamine B assay after 72 hours of treatment, and the dose able to inhibit 50% of growth (IC50) was calculated for the monotherapy (the results are summarized in Table 1 and Table 3), while the Kern Index (KI) was determined as the synergism/antagonism […] index for the combined treatment (the results are depicted in FIG. 2).

[1] = system: ovarian cancer cells (A2780); assay: Cell cycle and apoptosis in ovarian cancer cells; assay type: cell-based
[2] = In vivo plasma levels by HPLC after i.p. administration; parameters: species or system nude mice; conditions: for Plasma level: 5 hours after last administration, 5% DMSO, H2O
Experimental: To evaluate the plasma levels of salt 1a, 4-oxo-4-HPR (120 mg/kg) and salt 1a (sodium 4-aminoxyacetate-4-HPR) (60 and 100 mg/kg) were administered i.p. to nude mice for 4 consecutive days (once a day), and the plasma levels were evaluated by HPLC 5 hours after the last administration (the results are summarized in Table 2).

T47-D = assay: Antiproliferative activity, sulphorhodamine B assay, 72 hours of treatment; assay type: cell-based; conditions: T47-D (breast)
Experimental: as §1

IGROV-1 = assay: as above; assay type: cell-based, human; conditions: IGROV-1 (ovary)
Experimental: as §1

MDA-MB-231 = assay: as above; assay type: cell-based, human; conditions: MDA-MB-231 (breast)
Experimental: as §1

BT-474 = assay: as above; assay type: cell-based; conditions: BT-474 (breast)
Experimental: as §1

JVM-2 = assay: as above; assay type: cell-based; conditions: JVM-2 (lymphoma)
Experimental: as §1

MESO = assay: as above; assay type: cell-based; conditions: MESO (mesothelioma)
Experimental: as §1

SK-N-BE = assay: as above; assay type: cell-based; conditions: SK-N-BE (neuroblastoma)
Experimental: as §1

SK-N-SH = assay: as above; assay type: cell-based; conditions: SK-N-SH (neuroblastoma)
Experimental: as §1

SKOV-3 = assay: as above; assay type: cell-based; conditions: SKOV-3 (ovary)
Experimental: as §1

Sk-N-5Y = assay: as above; assay type: cell-based; conditions: Sk-N-5Y (neuroblastoma)
Experimental: as §1

STO = assay: as above; assay type: cell-based, human; conditions: STO (mesothelioma)
Experimental: as §1

[3] = system: human mesothelioma (STO) cells; assay: In vivo antitumor activity, mesothelioma xenograft (s.c.); parameters: species or system mice; conditions: 30 and 60 mg/kg i.p., 5 days/week for 4 weeks
Experimental: As regards to mesothelioma, the mice were inoculated s.c. with STO cells, and treatment with the salt 1a began one day after tumor cell inoculation (doses: 30 and 60 mg/kg i.p.; 5 days/week for 4 weeks). The control mice were treated with the same solvent as used to dissolve the salt. The animals were examined twice a week to check their weight and any signs of toxicity. Tumour growth in the various groups (control and treated) was evaluated, and the differences were statistically analysed (the results are shown in FIG. 3a).

[4] = system: ovarian cancer (IGROV-1) cells; assay type: in vivo
Experimental: For the ovarian model, nude mice were inoculated i.p. with IGROV-1 cells, and treatment with the salt 1a began one day after tumor cell inoculation (doses: 30, 60 and 90 mg/kg i.p.; 5 days/week for 4 weeks). The control mice were treated with the same solvent as used to dissolve the salt. The animals were examined twice a week to check their weight and any signs of toxicity. The survival time of the various groups (control and treated) was evaluated, and the differences were statistically analysed.

[5] = system: human breast cancer cells (MDA-MB-231); assay: In vivo antitumor activity, breast cancer model (mammary fat pad); conditions: 90 mg/kg
Experimental: As regards the breast cancer model, human breast cancer cells (MDA-MB-231) were inoculated into the mammary fat pad of NOD/SCID-gamma mice, and treatment with the salt 1a began one week after tumor cell inoculation (dose: 90 mg/kg; 4 days/week for 5 weeks). The animals were examined twice a week to check their weight and any signs of toxicity. Tumour growth in the various groups (control and treated) was evaluated, and the differences were statistically analysed.

ROS = ROS generation, CM-H2DCFDA probe, FACS; assay type: cell-based; conditions: 5 hours of treatment
Experimental: (§2) As regards to the evaluation of the mechanism of action, ROS generation was determined after 5 hours of treatment with the use of the 5-(and -6)-chloromethyl-2′, 7′-dichlorodihydrofluorescein diacetate (CM-H2DCFDA) probe, while the cell cycle was evaluated by staining with propidium iodide. Cytofluorimetric analysis (FACS) was conducted in both cases.

cell cycle = assay: Cell cycle, propidium iodide staining, FACS; assay type: cell-based
Experimental: as §2

[6] = system: tumour cell lines of different histotypes; assay: Antiproliferative activity of combined treatment, sulphorhodamine B assay, Kern Index; assay type: cell-based; conditions: 72 hours, preliminary
Experimental: as §1

- IC50 (A2780; Homo sapiens): 955 nM
- melting point: 134 °C
Compound: CC(C=CC1=C(C)C(=NOCCN)CCC1(C)C)=CC=CC(C)=CC(=O)Nc1ccc(O)cc1 [Compound 1d, 9-[3-(2-Amino-ethoxyimino)-2,6,6-trimethyl-cyclohex-1-enyl]-3,7-dimethylnona-2,4,6,8-tetraenoic acid (4-hydroxy-phenyl)amide]
- Apoptotic activity (sub-G1 peak) [1]: apoptotic (sub-G1 peak)
- Cell cycle arrest [1]: induced a cycle arrest in G2-M

Compound: CC1=C(/C=C/C(C)=C/C=C/C(C)=C/C(=O)Nc2ccc(O)cc2)C(C)(C)CCC1=O [Compound 4-oxo-4-HPR, 4-oxo-N-(4-hydroxyphenyl)retinamide]
- Plasma level ([2]; i.p. once a day for 4 days, 5% cremophor): 0.8 μM ± 0.4
- Accumulation of the compound in proximity to the inoculation site ([2]; treated mice, i.p.): observed

- IC50 (A2780): 3590 nM
- IC50 (MDA-MB-231): 4260 nM
Compound: CC1=C(/C=C/C(C)=C/C=C/C(C)=C/C(=O)Nc2ccc(O)cc2)C(C)(C)CCC1=NOCCCC(=O)O [LOM1098]
- IC50 (T47-D): 4200 nM
- IC50 (IGROV-1): 3540 nM

- IC50 (A2780): 2370 nM
- IC50 (MDA-MB-231): 2950 nM
Compound: CCCCC(ON=C1CCC(C)(C)C(/C=C/C(C)=C/C=C/C(C)=C/C(=O)Nc2ccc(O)cc2)=C1C)C(=O)O (centres unmarked) [LOM1133]
- IC50 (T47-D): 3000 nM
- IC50 (IGROV-1): 2190 nM

Compound: CC1=C(/C=C/C(C)=C/C=C/C(C)=C/C(=O)Nc2ccc(O)cc2)C(C)(C)CCC1=NOCC(=O)[O-].[Na+] [Salt 1a]
- IC50 (A2780): 2780 nM
- IC50 (BT-474): 3690 nM
- IC50 (JVM-2): 1110 nM
- IC50 (MESO): 1280 nM
- IC50 (SK-N-BE): 1550 nM
- IC50 (SK-N-SH): 1900 nM
- IC50 (SKOV-3): 5960 nM
- IC50 (Sk-N-5Y): 1300 nM
- IC50 (T47-D): 3950 nM
- IC50 (IGROV-1): 3820 nM
- IC50 (MDA-MB-231): 3970 nM
- IC50 (STO): 1480 nM
- Plasma level ([2]; 60 mg/Kg i.p. once a day for 4 days): 60.3 μM ± 2.52
- Plasma level ([2]; 100 mg/Kg i.p. once a day for 4 days): 63.7 μM ± 2.08
- Toxicity for the animals ([2]; daily doses of 60 and 100 mg/kg): does not possess high toxicity
- Solubility compared with the parent compound ([2]; from in vivo experiments in murine models): far more soluble than the parent compound
- Plasma levels, times higher than 4-oxo-4-HPR ([2]; murine models, versus 4-oxo-4-HPR): up to 60 times
- Tumour growth [3]: activity trend of the compound, although it did not reach statistical significance
- Survival of the mice ([4]; IGROV-1 i.p., doses of 60 and 90 mg/kg i.p., 5 days/week for 4 weeks, p<0.01): significantly increased the survival
- Signs of toxicity ([4]; IGROV-1 model, 60 and 90 mg/kg): without any evident signs of severe toxicity
- Tumour growth ([5]; MDA-MB-231, 4 days/week for 5 weeks, p=0.01): reduced tumour growth
- Signs of toxicity ([5]; MDA-MB-231 model): without evident signs of severe toxicity
- ROS generation (pro-apoptotic activity) (ROS): the generation of ROS
- Cell cycle arrest during the mitotic phase (antitubulin activity) (cell cycle): the cell cycle arrest during the mitotic phase
- Activity of combined treatment (Kern Index) ([6]; combined with 4-HPR): synergic activity
- Activity of combined treatment (Kern Index) ([6]; combined with cisplatin): synergic activity
- Activity of combined treatment (Kern Index) ([6]; combined with paclitaxel): synergic activity
